# Measurements reported in ChEMBL document CHEMBL1201862, “PubChem BioAssay data set” (2004).
#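 Interpolation was linear, between the two tested concentrations surrounding the appropriate level; five concentrations were tested over 48 hours in 96-well plates. The concentration for 50% growth inhibition is given as GI50.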 The source made the active and inactive calls. Rule as the data show it: active = GI50 up to about 1.1 µM and inactive = higher.
# Tests used:
# Assay in all cases: NCI tumour cell line growth inhibition, 48 h
# CCRF-CEM = test system: CCRF-CEM
# EKVX = test system: EKVX
# HCT-116 = test system: HCT-116
# HCT-15 = test system: HCT-15
# HOP-92 = test system: HOP-92
# K562 = test system: K562
# LOX IMVI = test system: LOX IMVI
# MDA-MB-435 = test system: MDA-MB-435
# Malme-3M = test system: Malme-3M
# NCI-H23 = test system: NCI-H23
# NCI/ADR-RES = test system: NCI/ADR-RES
# OVCAR-5 = test system: OVCAR-5
# PC-3 = test system: PC-3
# RXF 393 = test system: RXF 393
# SF-295 = test system: SF-295
# SF-539 = test system: SF-539
# SK-MEL-2 = test system: SK-MEL-2
# SNB-19 = test system: SNB-19
# SR = test system: SR
# UACC-257 = test system: UACC-257
Compound,GI50 (CCRF-CEM),GI50 (EKVX),GI50 (HCT-116),GI50 (HCT-15),GI50 (HOP-92),GI50 (K562),GI50 (LOX IMVI),GI50 (MDA-MB-435),GI50 (Malme-3M),GI50 (NCI-H23),GI50 (NCI/ADR-RES),GI50 (OVCAR-5),GI50 (PC-3),GI50 (RXF 393),GI50 (SF-295),GI50 (SF-539),GI50 (SK-MEL-2),GI50 (SNB-19),GI50 (SR),GI50 (UACC-257)
COc1c(C(C)(C)C)cc(CC2C(=O)C=CC2=O)cc1C(C)(C)C,2.29 µM (inactive),17.7 µM (inactive),3.13 µM (inactive),14.1 µM,16.1 µM (inactive),4.93 µM (inactive),11.1 µM (inactive),15.3 µM (inactive),17.2 µM (inactive),22.4 µM (inactive),32 µM (inactive),18.3 µM (inactive),15.8 µM (inactive),14.8 µM (inactive),20.2 µM (inactive),11.1 µM (inactive),19 µM (inactive),19.1 µM (inactive),3.89 µM (inactive),17.5 µM (inactive)
Cc1cn(C2CC(O)C(COC(N)=O)O2)c(=O)[nH]c1=O (configuration not stated),> 100 µM (inactive),> 100 µM (inactive),> 100 µM (inactive),> 100 µM,> 100 µM (inactive),> 100 µM (inactive),> 100 µM (inactive),> 100 µM (inactive),> 100 µM (inactive),> 100 µM (inactive),> 100 µM (inactive),> 100 µM (inactive),> 100 µM (inactive),> 100 µM (inactive),> 100 µM (inactive),> 100 µM (inactive),> 100 µM (inactive),> 100 µM (inactive),> 100 µM (inactive),> 100 µM (inactive)
CCOC(=O)CC[C@H](N)C(=O)N[C@H](Cc1ccc(N(CCCl)CCCl)cc1)C(=O)OCC,1.96 µM (inactive),6.03 µM (inactive),5.78 µM (inactive),4.39 µM,0.561 µM (active),> 34.4 µM (inactive),4.61 µM (inactive),24.9 µM (inactive),4.94 µM (inactive),0.857 µM (active),4.26 µM (inactive),5.06 µM (inactive),3.63 µM (inactive),0.879 µM (active),3.21 µM (inactive),1.99 µM (inactive),12.3 µM (inactive),16.1 µM (inactive),0.09 µM (active),10 µM (inactive)
CCCCC(=O)NC1(c2cc3ccccc3s2)CCCCC1,19.4 µM (inactive),> 100 µM (inactive),> 100 µM (inactive),> 100 µM,> 100 µM (inactive),> 100 µM (inactive),> 100 µM (inactive),> 100 µM (inactive),> 100 µM (inactive),> 100 µM (inactive),> 100 µM (inactive),> 100 µM (inactive),> 100 µM (inactive),> 100 µM (inactive),> 100 µM (inactive),33.2 µM (inactive),> 100 µM (inactive),> 100 µM (inactive),> 100 µM (inactive),> 100 µM (inactive)
O=C1CC(c2ccccc2)C2(C(=O)NC(=S)NC2=O)C(c2ccccc2)C1 (configuration not stated),> 75 µM (inactive),> 75 µM (inactive),> 75 µM (inactive),> 75 µM,13.3 µM (inactive),> 75 µM (inactive),> 75 µM (inactive),55.8 µM (inactive),> 75 µM (inactive),> 75 µM (inactive),> 75 µM (inactive),> 75 µM (inactive),> 75 µM (inactive),> 75 µM (inactive),> 75 µM (inactive),> 75 µM (inactive),> 75 µM (inactive),> 75 µM (inactive),71 µM (inactive),> 75 µM (inactive)
CCC1(CCSC(=N)N)C(=O)NC(=O)NC1=O,> 100 µM (inactive),> 100 µM (inactive),> 100 µM (inactive),> 100 µM,> 100 µM (inactive),> 100 µM (inactive),> 100 µM (inactive),> 100 µM (inactive),> 100 µM (inactive),> 100 µM (inactive),> 100 µM (inactive),> 100 µM (inactive),> 100 µM (inactive),> 100 µM (inactive),> 100 µM (inactive),> 100 µM (inactive),> 100 µM (inactive),> 100 µM (inactive),> 100 µM (inactive),> 100 µM (inactive)
NC1(P(=O)(O)O)CCCCC1,> 100 µM (inactive),> 100 µM (inactive),> 100 µM (inactive),> 100 µM,> 100 µM (inactive),> 100 µM (inactive),> 100 µM (inactive),> 100 µM (inactive),> 100 µM (inactive),> 100 µM (inactive),> 100 µM (inactive),> 100 µM (inactive),> 100 µM (inactive),> 100 µM (inactive),> 100 µM (inactive),> 100 µM (inactive),> 100 µM (inactive),> 100 µM (inactive),> 100 µM (inactive),> 100 µM (inactive)
N=c1oc2ccccc2cc1-c1nc2ccccc2[nH]1,14 µM (inactive),18.2 µM (inactive),49.1 µM (inactive),31.5 µM,2.23 µM (inactive),18.9 µM (inactive),32.5 µM (inactive),15.5 µM (inactive),24.9 µM (inactive),–,22.3 µM (inactive),> 100 µM (inactive),78 µM (inactive),38.9 µM (inactive),78.3 µM (inactive),44.3 µM (inactive),49.2 µM (inactive),98.9 µM (inactive),19.2 µM (inactive),> 100 µM (inactive)
CCOC(=O)C1(Cc2ccccc2)C=CN(C(=O)c2ccccc2)C=C1,20.9 µM (inactive),32.9 µM (inactive),29.8 µM (inactive),32.1 µM,23.4 µM (inactive),27 µM (inactive),34.4 µM (inactive),29.2 µM (inactive),26.6 µM (inactive),30.1 µM (inactive),36.6 µM (inactive),> 100 µM (inactive),25.4 µM (inactive),27.5 µM (inactive),36 µM (inactive),42.9 µM (inactive),18.1 µM (inactive),46.5 µM (inactive),22.4 µM (inactive),20.6 µM (inactive)
O=c1[nH]n(Cc2ccccc2Cl)c2ccccc12,> 100 µM (inactive),> 100 µM (inactive),> 100 µM (inactive),> 100 µM,62.4 µM (inactive),> 100 µM (inactive),> 100 µM (inactive),> 100 µM (inactive),> 100 µM (inactive),> 100 µM (inactive),> 100 µM (inactive),> 100 µM (inactive),> 100 µM (inactive),> 10 µM (inactive),–,> 100 µM (inactive),> 100 µM (inactive),> 100 µM (inactive),> 100 µM (inactive),38.9 µM (inactive)
CC(C)(C)OC(=O)N1C(c2cccnc2)=CC[C@H]2C3CC=C(c4cccnc4)[C@@]3(C)CC[C@@H]21 (some centres not stated),3.99 µM (inactive),2.11 µM (inactive),4.04 µM (inactive),3.52 µM,2.52 µM (inactive),0.52 µM (active),2.71 µM (inactive),2.13 µM (inactive),3.44 µM (inactive),3.4 µM (inactive),8.45 µM (inactive),11.9 µM (inactive),4.6 µM (inactive),3.32 µM (inactive),3.13 µM (inactive),3.82 µM (inactive),2.95 µM (inactive),4.83 µM (inactive),3.28 µM (inactive),3.23 µM (inactive)
CN(C)N1C(=O)SCC(c2ccccc2)(c2ccccc2)C1=O,> 100 µM (inactive),> 100 µM (inactive),> 100 µM (inactive),> 100 µM,> 100 µM (inactive),87.7 µM (inactive),> 100 µM (inactive),> 100 µM (inactive),> 100 µM (inactive),> 100 µM (inactive),> 100 µM (inactive),> 100 µM (inactive),> 100 µM (inactive),> 100 µM (inactive),> 100 µM (inactive),> 100 µM (inactive),63.4 µM (inactive),> 100 µM (inactive),> 100 µM (inactive),> 100 µM (inactive)
COc1ccc(N2C(=O)CC(=O)N(C(=O)CCCCCCCCC(=O)N3C(=O)CC(=O)N(c4ccc(OC)cc4)C3=S)C2=S)cc1,31.6 µM (inactive),> 100 µM (inactive),> 100 µM (inactive),> 100 µM,> 100 µM (inactive),44.3 µM (inactive),78.3 µM (inactive),61.1 µM (inactive),> 100 µM (inactive),> 100 µM (inactive),> 100 µM (inactive),> 100 µM (inactive),> 100 µM (inactive),> 100 µM (inactive),> 100 µM (inactive),> 100 µM (inactive),> 100 µM (inactive),> 100 µM (inactive),39.4 µM (inactive),> 100 µM (inactive)
N=c1oc2ccc([N+](=O)[O-])cc2cc1C(=O)Nc1ccccn1,31.5 µM (inactive),34.6 µM (inactive),32.4 µM (inactive),44.3 µM,71.9 µM (inactive),> 100 µM (inactive),33.5 µM (inactive),37.6 µM (inactive),21.7 µM (inactive),41.3 µM (inactive),97.3 µM (inactive),> 100 µM (inactive),12.9 µM (inactive),31.2 µM (inactive),–,26.2 µM (inactive),16.2 µM (inactive),33.9 µM (inactive),58.1 µM (inactive),> 100 µM (inactive)
